Data taken from PubChem BioAssay (NCI).
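Cultured in 96-well plates, cells were exposed to test compound for 48 hours across five concentrations. The concentration for full growth arrest is given as TGI.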

Experiments:
Assay in all cases: DTP human tumour cell line panel, 48 h
NCI-H23 lung = tested on: NCI-H23 lung
NCI/ADR-RES ovarian = tested on: NCI/ADR-RES ovarian
SNB-75 CNS = tested on: SNB-75 CNS
SN12C renal = tested on: SN12C renal
HOP-62 NSCLC = tested on: HOP-62 NSCLC
NCI-H460 lung = tested on: NCI-H460 lung
SW-620 colon = tested on: SW-620 colon
MDA-N = tested on: MDA-N
SK-MEL-2 melanoma = tested on: SK-MEL-2 melanoma
PC-3 prostate = tested on: PC-3 prostate
KM12 colon = tested on: KM12 colon
SF-268 CNS = tested on: SF-268 CNS
OVCAR-3 ovarian = tested on: OVCAR-3 ovarian
U251 CNS = tested on: U251 CNS
MCF7 breast = tested on: MCF7 breast
OVCAR-8 ovarian = tested on: OVCAR-8 ovarian
IGROV1 ovarian = tested on: IGROV1 ovarian
K-562 leukemia = tested on: K-562 leukemia
MOLT-4 leukemia = tested on: MOLT-4 leukemia
SR leukemia = tested on: SR leukemia
T-47D breast = tested on: T-47D breast
MDA-MB-231 breast = tested on: MDA-MB-231 breast
SNB-19 CNS = tested on: SNB-19 CNS
CAKI-1 renal = tested on: CAKI-1 renal
OVCAR-4 ovarian = tested on: OVCAR-4 ovarian
786-0 renal = tested on: 786-0 renal
EKVX NSCLC = tested on: EKVX NSCLC
HL-60(TB) leukemia = tested on: HL-60(TB) leukemia
NCI-H226 lung = tested on: NCI-H226 lung
TK-10 renal = tested on: TK-10 renal
MDA-MB-435 = tested on: MDA-MB-435
HS 578T breast = tested on: HS 578T breast
SK-MEL-28 melanoma = tested on: SK-MEL-28 melanoma
SF-295 CNS = tested on: SF-295 CNS
RPMI-8226 leukemia = tested on: RPMI-8226 leukemia
OVCAR-5 ovarian = tested on: OVCAR-5 ovarian
RXF 393 renal = tested on: RXF 393 renal
UACC-257 melanoma = tested on: UACC-257 melanoma
A498 renal = tested on: A498 renal
SK-MEL-5 melanoma = tested on: SK-MEL-5 melanoma
ACHN renal = tested on: ACHN renal
HT29 colon = tested on: HT29 colon
BT-549 breast = tested on: BT-549 breast
UACC-62 melanoma = tested on: UACC-62 melanoma
MALME-3M melanoma = tested on: MALME-3M melanoma
DU-145 prostate = tested on: DU-145 prostate
UO-31 renal = tested on: UO-31 renal
HCT-116 colon = tested on: HCT-116 colon
HCC-2998 colon = tested on: HCC-2998 colon
LOX IMVI melanoma = tested on: LOX IMVI melanoma
HCT-15 colon = tested on: HCT-15 colon
COLO 205 colon = tested on: COLO 205 colon
NCI-H522 lung = tested on: NCI-H522 lung
SF-539 CNS = tested on: SF-539 CNS
A549 NSCLC = tested on: A549 NSCLC
M14 melanoma = tested on: M14 melanoma
CCRF-CEM leukemia = tested on: CCRF-CEM leukemia

CNC(=S)Nc1sc2c(c1C#N)CCCC2
TGI (NCI-H23 lung): > 75 µM
TGI (NCI/ADR-RES ovarian): > 75 µM
TGI (SNB-75 CNS): > 75 µM
TGI (SN12C renal): > 75 µM
TGI (HOP-62 NSCLC): > 75 µM
TGI (NCI-H460 lung): > 75 µM
TGI (SW-620 colon): > 75 µM
TGI (MDA-N): > 75 µM
TGI (SK-MEL-2 melanoma): > 75 µM
TGI (PC-3 prostate): > 75 µM
TGI (KM12 colon): > 75 µM
TGI (SF-268 CNS): > 75 µM
TGI (OVCAR-3 ovarian): > 75 µM
TGI (U251 CNS): > 75 µM
TGI (MCF7 breast): > 75 µM
TGI (OVCAR-8 ovarian): > 75 µM
TGI (IGROV1 ovarian): > 75 µM
TGI (K-562 leukemia): > 75 µM
TGI (MOLT-4 leukemia): > 75 µM
TGI (SR leukemia): > 75 µM
TGI (T-47D breast): > 75 µM
TGI (MDA-MB-231 breast): > 75 µM
TGI (SNB-19 CNS): > 75 µM
TGI (CAKI-1 renal): > 75 µM
TGI (OVCAR-4 ovarian): > 75 µM
TGI (786-0 renal): > 75 µM
TGI (EKVX NSCLC): > 75 µM
TGI (HL-60(TB) leukemia): > 75 µM
TGI (NCI-H226 lung): > 75 µM
TGI (TK-10 renal): > 75 µM
TGI (MDA-MB-435): > 75 µM
TGI (HS 578T breast): > 75 µM
TGI (SK-MEL-28 melanoma): > 75 µM
TGI (SF-295 CNS): > 75 µM
TGI (RPMI-8226 leukemia): > 75 µM
TGI (OVCAR-5 ovarian): > 75 µM
TGI (RXF 393 renal): > 75 µM
TGI (UACC-257 melanoma): > 75 µM
TGI (A498 renal): > 75 µM
TGI (SK-MEL-5 melanoma): > 75 µM
TGI (ACHN renal): > 75 µM
TGI (HT29 colon): > 75 µM
TGI (BT-549 breast): > 75 µM
TGI (UACC-62 melanoma): > 75 µM
TGI (MALME-3M melanoma): > 75 µM
TGI (DU-145 prostate): > 75 µM
TGI (UO-31 renal): > 75 µM
TGI (HCT-116 colon): > 75 µM
TGI (HCC-2998 colon): > 75 µM
TGI (LOX IMVI melanoma): > 75 µM
TGI (HCT-15 colon): > 75 µM
TGI (COLO 205 colon): > 75 µM
TGI (NCI-H522 lung): > 75 µM

Cn1ncc2[nH]cnc2c1=S
TGI (NCI-H23 lung): > 100 µM
TGI (NCI/ADR-RES ovarian): > 100 µM
TGI (SNB-75 CNS): > 100 µM
TGI (SN12C renal): > 100 µM
TGI (HOP-62 NSCLC): > 100 µM
TGI (NCI-H460 lung): > 100 µM
TGI (SW-620 colon): > 100 µM
TGI (MDA-N): > 100 µM
TGI (SK-MEL-2 melanoma): > 100 µM
TGI (PC-3 prostate): > 100 µM
TGI (KM12 colon): > 100 µM
TGI (SF-268 CNS): > 100 µM
TGI (OVCAR-3 ovarian): > 100 µM
TGI (U251 CNS): > 100 µM
TGI (MCF7 breast): > 100 µM
TGI (OVCAR-8 ovarian): > 100 µM
TGI (SF-539 CNS): > 100 µM
TGI (IGROV1 ovarian): > 100 µM
TGI (K-562 leukemia): > 100 µM
TGI (MOLT-4 leukemia): > 100 µM
TGI (SR leukemia): > 100 µM
TGI (T-47D breast): > 100 µM
TGI (MDA-MB-231 breast): > 100 µM
TGI (SNB-19 CNS): > 100 µM
TGI (CAKI-1 renal): > 100 µM
TGI (786-0 renal): > 100 µM
TGI (EKVX NSCLC): > 100 µM
TGI (HL-60(TB) leukemia): 24.6 µM
TGI (NCI-H226 lung): > 100 µM
TGI (A549 NSCLC): > 100 µM
TGI (TK-10 renal): > 100 µM
TGI (MDA-MB-435): > 100 µM
TGI (HS 578T breast): > 100 µM
TGI (SK-MEL-28 melanoma): > 100 µM
TGI (SF-295 CNS): > 100 µM
TGI (RPMI-8226 leukemia): > 100 µM
TGI (OVCAR-5 ovarian): > 100 µM
TGI (RXF 393 renal): > 100 µM
TGI (UACC-257 melanoma): > 100 µM
TGI (A498 renal): > 100 µM
TGI (SK-MEL-5 melanoma): > 100 µM
TGI (ACHN renal): > 100 µM
TGI (HT29 colon): > 100 µM
TGI (BT-549 breast): > 100 µM
TGI (UACC-62 melanoma): > 100 µM
TGI (DU-145 prostate): > 100 µM
TGI (UO-31 renal): > 100 µM
TGI (HCT-116 colon): > 100 µM
TGI (HCT-15 colon): > 100 µM
TGI (COLO 205 colon): > 100 µM
TGI (M14 melanoma): > 100 µM
TGI (CCRF-CEM leukemia): 66.8 µM

O=C1/C(=C/c2cc3c(=O)c4ccccc4sc3s2)NC(=S)N1c1ccccc1
TGI (NCI-H23 lung): > 100 µM
TGI (NCI/ADR-RES ovarian): > 100 µM
TGI (SNB-75 CNS): > 100 µM
TGI (SN12C renal): > 100 µM
TGI (HOP-62 NSCLC): > 100 µM
TGI (NCI-H460 lung): > 100 µM
TGI (SW-620 colon): > 100 µM
TGI (MDA-N): > 100 µM
TGI (SK-MEL-2 melanoma): > 100 µM
TGI (PC-3 prostate): > 100 µM
TGI (KM12 colon): > 100 µM
TGI (SF-268 CNS): > 100 µM
TGI (OVCAR-3 ovarian): > 100 µM
TGI (U251 CNS): > 100 µM
TGI (MCF7 breast): > 100 µM
TGI (OVCAR-8 ovarian): > 100 µM
TGI (IGROV1 ovarian): > 100 µM
TGI (K-562 leukemia): > 100 µM
TGI (MOLT-4 leukemia): > 100 µM
TGI (SR leukemia): 49.6 µM
TGI (T-47D breast): > 100 µM
TGI (MDA-MB-231 breast): > 100 µM
TGI (SNB-19 CNS): > 100 µM
TGI (CAKI-1 renal): > 100 µM
TGI (OVCAR-4 ovarian): > 100 µM
TGI (786-0 renal): > 100 µM
TGI (EKVX NSCLC): > 100 µM
TGI (HL-60(TB) leukemia): 66.9 µM
TGI (NCI-H226 lung): > 100 µM
TGI (TK-10 renal): > 100 µM
TGI (MDA-MB-435): > 100 µM
TGI (HS 578T breast): > 100 µM
TGI (SK-MEL-28 melanoma): > 100 µM
TGI (SF-295 CNS): > 100 µM
TGI (RPMI-8226 leukemia): > 100 µM
TGI (OVCAR-5 ovarian): > 100 µM
TGI (RXF 393 renal): > 100 µM
TGI (UACC-257 melanoma): > 100 µM
TGI (A498 renal): > 100 µM
TGI (SK-MEL-5 melanoma): > 100 µM
TGI (ACHN renal): > 100 µM
TGI (HT29 colon): > 100 µM
TGI (BT-549 breast): > 100 µM
TGI (UACC-62 melanoma): > 100 µM
TGI (MALME-3M melanoma): > 100 µM
TGI (DU-145 prostate): > 100 µM
TGI (UO-31 renal): > 100 µM
TGI (HCT-116 colon): > 100 µM
TGI (HCC-2998 colon): > 100 µM
TGI (LOX IMVI melanoma): > 100 µM
TGI (HCT-15 colon): > 100 µM
TGI (COLO 205 colon): > 100 µM
TGI (NCI-H522 lung): > 100 µM
